# Results as given in patent publication US8455448B2, “Myostatin isoform” (Myostin Therapeutics Pty Ltd, priority 2004, dated 2013).
# Legend:
# [1] = system: human skeletal muscle myoblasts; test: Proliferation assay of human primary myoblasts (methylene blue); type: cell-based; conditions: 0-10 μg/ml, 96 h, FIG. 12B
# Description: Human skeletal muscle myoblasts (Cambrex, Australia) were seeded in 96-well tissue culture plates (Nunc, Roskilde, Denmark) at a cell density of 2000 cells per well in 200 μl of Skeletal Muscle Basal Medium (Cambrex, Australia) supplemented with foetal bovine serum (FBS, 10% v/v, Cambrex, Australia), and incubated overnight at 37° C. with 5% CO2. The medium was replaced with Dulbecco's modified Eagle's medium (DMEM, Invitrogen, California) supplemented with 5% foetal bovine serum (FBS, Invitrogen, California), penicillin (1×10^5 IU/l, Sigma, St Louis, Mo., USA) and streptomycin (100 mg/l, Sigma) buffered with NaHCO3 containing phenol red (7.22 nmol/l) as a pH indicator with 0, 0.1, 1, 5 and 10 μg/ml rhMSV38 or roMSV47 protein in a semi-random arrangement of eight replicates (n=8) for each test medium. Plates were incubated at 37° C. with 5% CO2 for 96 hours, and then the medium was removed. The wells were washed with 200 μl of phosphate buffered saline (PBS, Oxoid, UK) buffer and fixed with 100 μl of 10% formaldehyde, 0.9% NaCl solution for at least one hour. The fixative was then removed and 100 μl of 1% methylene blue stain in 0.01 M borate buffer (pH 8.5) was added to each well and incubated for 30 min at room temperature. Excess stain was removed by four sequential washes in borate buffer. Methylene blue was eluted from the cells by the addition of 100 μl 1:1 (v/v) ethanol/0.1 HCl. The plates were gently shaken and the absorbance was measured at 655 nm using a microplate photometer (VersaMax, Molecular Devices, CA).
# Human skeletal muscle myoblasts (Cambrex, Australia) were seeded in 96-well tissue culture plates (Nunc, Roskilde, Denmark) at a cell density of 2000 cells per well in 200 μl of Skeletal Muscle Basal Medium (Cambrex, Australia) supplemented with foetal bovine serum (FBS, 10% v/v, Cambrex, Australia), and incubated overnight at 37° C. with 5% CO2. The medium was replaced with Dulbecco's modified Eagle's medium (DMEM, Invitrogen, California) supplemented with 5% foetal bovine serum (FBS, Invitrogen, California), penicillin (1×10^5 IU/l, Sigma, St Louis, Mo., USA) and streptomycin (100 mg/l, Sigma) buffered with NaHCO3 containing phenol red (7.22 nmol/l) as a pH indicator with no added protein, 1.5 or 3.0 μg/ml recombinant bovine mature myostatin alone and with combination of 0.3, 1, 3, 10 molar ratio of rhMSV38 to myostatin, and the same amounts of rhMSV38 without myostatin in a semi-random arrangement of eight replicates (n=8) for each test medium. Plates were incubated at 37° C. with 5% CO2 for 48 hours, and then the medium was removed. […] The plates were gently shaken and the absorbance was measured at 655 nm using a microplate photometer (VersaMax, Molecular Devices, CA).
# [2] = system: rats bearing the AH130 tumour; test: Muscle mass during cancer-induced cachexia, rats with AH130 tumour; type: in vivo, rat; conditions: 1 μg/g bodymass s.c. twice daily for 6 d, six hind limb muscles, FIG. 18
# Description: In this study, 21 male rats (three months of age) were allocated at random into three groups of seven. Group one was injected i.p. with sterile saline (non-cancer controls), groups two and three were inoculated i.p. with 100 μl of the AH130 tumour (Baracos et al 1995). Groups one and two were injected twice daily s.c. for six days with sterile saline, while group three was injected twice daily s.c. for six days with 1 μg/g bodymass with roMSV47. Rats were killed at day six and, at death, skeletal muscles (biceps femoris, gastrocnemius, tibialis anterior, quadriceps femoris, plantaris and soleus) were excised from the right hind limb of each rat and the wet mass expressed as a percent of the initial body mass on day 0.
# The ascites hepatoma 130 (AH130) was obtained as a gift from Dr Vicki Baracos (University of Alberta, Edmonton, Alberta, Canada) and stored in cryovials in liquid nitrogen in a solution of 50% DMSO and 10% BSA. An aliquot was retrieved and thawed and 1 ml was injected i.p. into each of three donor rats and allowed to grow for seven days. The rats were killed by CO2 asphyxiation followed by cervical dislocation. […] The volume of ascites in the peritoneal cavity was removed with a syringe and the volume recorded. Six muscles in the right hind limb (biceps femoris, gastrocnemius, soleus, plantaris, tibialis anterior and quadriceps femoris) were excised and their mass recorded. […]
substance,measurement,setting,value
"roMSV47: 47 amino acid C-terminal mature ovine MSV fragment (SEQ ID NO: 50), recombinant from E. coli (IIFLEVYIQFCSILGEAVFKRQSKSIHFCQNFKIIACLCNTAAFRMK; Ovis aries)",proliferation of human myoblasts,[1],able to stimulate human myoblast proliferation
same,reduction of generalised wasting of skeletal muscle induced by cancer,[2],20%
